# Measurements published in patent publication US9128100B2, “Non-invasive diagnostic method for the evaluation of intestinal lactase deficiency (hypolactasia)” (Venter Pharma, S.L., priority 2012, dated 2015).
# Where “and” joins values, the source holds several entries; their conditions need not be identical. Equal entries are not always repeated. Entries after “also recorded” stand apart in the source; their conditions may differ.
# Experiments:
# intestinal lactase [1] = target: T1, intestinal lactase (Homo sapiens, UniProt P09848); experiment: 4-GX test in 4-hour urine, patients with symptoms suggestive of lactose intolerance; assay type: in vivo
# T1 construct: after its oral administration it is hydrolysed by the intestinal mucosa enzyme; from tissue; host or cells: small-intestinal mucosa (enterocyte brush border) of living human volunteers and patients, in vivo
# T1 sequence (P09848 869-1927): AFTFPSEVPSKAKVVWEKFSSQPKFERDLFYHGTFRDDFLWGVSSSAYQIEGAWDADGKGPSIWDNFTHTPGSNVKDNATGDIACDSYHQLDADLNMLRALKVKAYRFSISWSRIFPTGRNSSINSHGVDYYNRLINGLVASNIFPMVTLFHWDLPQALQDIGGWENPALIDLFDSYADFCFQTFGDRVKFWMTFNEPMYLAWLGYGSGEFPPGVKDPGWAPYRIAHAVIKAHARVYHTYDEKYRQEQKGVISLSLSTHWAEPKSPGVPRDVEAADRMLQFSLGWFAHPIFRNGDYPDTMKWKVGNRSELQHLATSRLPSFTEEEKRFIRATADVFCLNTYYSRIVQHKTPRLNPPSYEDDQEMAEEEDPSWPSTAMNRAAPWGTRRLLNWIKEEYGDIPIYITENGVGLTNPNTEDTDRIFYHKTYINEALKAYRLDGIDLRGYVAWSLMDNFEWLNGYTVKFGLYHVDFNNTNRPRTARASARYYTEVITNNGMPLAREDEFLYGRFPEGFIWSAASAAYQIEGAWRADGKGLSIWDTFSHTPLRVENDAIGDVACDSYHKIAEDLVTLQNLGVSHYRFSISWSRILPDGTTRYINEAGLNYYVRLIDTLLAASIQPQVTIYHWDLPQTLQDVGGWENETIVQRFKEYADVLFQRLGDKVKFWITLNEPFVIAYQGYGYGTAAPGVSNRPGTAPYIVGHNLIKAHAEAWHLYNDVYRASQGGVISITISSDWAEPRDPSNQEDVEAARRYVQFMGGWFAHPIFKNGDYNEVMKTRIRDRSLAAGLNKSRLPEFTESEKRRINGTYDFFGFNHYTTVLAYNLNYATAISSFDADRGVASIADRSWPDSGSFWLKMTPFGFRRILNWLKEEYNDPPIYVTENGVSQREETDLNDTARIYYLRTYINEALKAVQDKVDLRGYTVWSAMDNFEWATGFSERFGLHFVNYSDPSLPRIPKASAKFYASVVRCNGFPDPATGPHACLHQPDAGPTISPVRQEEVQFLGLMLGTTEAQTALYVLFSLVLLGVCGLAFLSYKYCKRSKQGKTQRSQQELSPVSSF
# Protocol: The diagnostic tests to which these patients were subjected were: • Intestinal biopsy: determining intestinal lactase activity therein. • Hydrogen breath test after the oral administration to patients of 50 g of lactose. While this test was being carried out, several capillary-blood glucose test (Glycemia tests) were carried out, calculating the highest increase observed in the blood glucose concentration compared to basal glucose level before starting the test. • 4-GX test in total urine at 0-4 and 0-5 hours, which was orally administered to patients 0.5 g of this product (or 0.45 g in a 4-GX sample including 10 wt % water), collecting the total urine accumulated over 0-4 h and 0-5 h following the administration of 4-GX and determining the amount of excreted xylose in both volumes of urine. • 4-GX test in blood which was orally administered to patients 3 g of this product (or 2.7 g in a 4-GX sample including 10 wt % water) to determine the concentration of plasma xylose in a blood sample 90 minutes after ingestion of the product. The concentration obtained was compared to a basal blood sample extracted before ingestion of 4-GX.
# The 4-GX was orally administered in a single dose dissolved in 100 ml of water.
# From here on, the optimum dose of 0.5 g of 4-GX (or 0.45 g in a 4-GX sample including 10 wt % water) was used in the 4-GX urine test for the diagnosis of intestinal lactase deficiency by the non-invasive method described in the present invention. This dose was dissolved in 100 ml water, and following the test protocol, 2 samples of urine excreted during the 5 hours following the administration of the drug were taken, in two interval groups: at 4 hours following administration of 4-GX and at 5 hours following administration of 4-GX.
# From the data obtained from the various urine tests for intestinal lactase deficiency following oral ingestion of 4-GX described in the present invention, a descriptive statistical analysis was performed of the amount of xylose excreted in the urine up to 4 hours and up to 5 hours following said administration. The same was done with the blodd test for intestinal lactase activity following oral ingestion of 4-GX, where descriptive statistical analysis was performed on the amount of xylose present in the plasma of subjects at 90 minutes following administration of 4-GX. The net increase in the plasma xylose concentration compared to basal values was also calculated.
# To obtain the statistical parameters of lactase determination using the various 4-GX tests described in the present invention and later to compare them with the results obtained from the intestinal biopsy test, hydrogen in exhaled air test and capillary-blood glucose test, the normal limits of the measurement of the total amount of xylose excreted in 4-hour and 5-hour urine and the concentration of blood xylose after 90 minutes following ingestion of 4-GX described in Table 5 were used. The normal limits for the other tests were those used in common clinical practice for the diagnosis of lactose intolerance (Arola, H. (1994) Diagnosis of hypolactasia and lactose malabsorption. Scand. J. Gastroenterol. […] (Suppl), 26-35), which are:
# For the measurement of lactase by intestinal biopsy, the lower normal limit is established at 10 units/g protein, with values less than this being considered positive.
# [2] = Safety and tolerance of the 4-GX doses; assay type: in vivo, human; conditions: all doses of 4-GX used (0.125 g to 6 g oral)
# Protocol: (§1) Two groups of subjects were selected. […] Firstly, the lowest suitable oral dose of 4-GX administered to healthy volunteers was determined that enabled reliable detection (in terms of accuracy and reproducibility) of xylose levels in urine and blood via the analytical method to be used. In addition, the tolerance of these subjects to the various doses of 4-GX used in the test and the pharmacokinetics for each dose administered were analysed, both in urine and blood. The doses of 4-GX used were: 0.125 g, 0.250 g, 0.5 g, 1 g, 3 g and 6 g in addition to placebo in 12 healthy volunteers with washout period between doses of between three and seven days. It should be appreciated that the 4-GX doses can include small quantities of water which remain subsequent to the drying process of the 4-GX product. For example, the 4-GX product can contain about 8 wt % to about 12 wt %, most likely about 10 wt % water, based on the total weight of the product. Accordingly, the aforementioned 4-GX doses administered would actually include 0.1125 g, 0.225 g, 0.45 g, 0.9 g, 2.7 g and 5.4 g of actual 4-GX product, respectively, if they contain 10 wt % water. […] In each study period, an ascending dose of 4-GX was administered and the serum and urine concentrations of xylose were measured at various times up to 8 hours following the administration of the drug.
# intestinal lactase [3] = target: T1, intestinal lactase; experiment: Urinary excretion of xylose after single oral doses of 4-GX in healthy volunteers; assay type: in vivo
# Protocol: as §1, with “product.” for “product. Accordingly, the aforementioned 4-GX doses administered would actually include 0.1125 g, 0.225 g, 0.45 g, 0.9 g, 2.7 g and 5.4 g of actual 4-GX product, respectively, if they contain 10 wt % water.”
# The main measured variable was the quantity of xylose in urine collected following oral administration of 4-GX at the following times: basal, 0-1 h, 1-2 h, 2-3 h, 3-4 h, 4-5 h, 5-6 h, 6-7 h and 7-8 h. […]
# [4] = 0.5 g 4-GX, 0-4 h urine, cut-off 27.58 mg, 205 patients
# [5] = 0.5 g 4-GX, 4-hour urine, lactase in intestinal biopsy as gold standard
# [6] = 4-hour urine, after correcting biopsy diagnosis
# [7] = 4-hour urine, after correction of the biopsy diagnostic result (five discrepancies)
# [8] = 4-hour urine, after correction of the biopsy diagnostic result (four discrepancies)
# [9] = 4-hour urine, biopsy as gold standard
# [10] = 4-hour urine, final criteria of Table 9
smiles,measurement,setting,value
"O=C[C@H](O)[C@@H](O)[C@@H](CO)O[C@@H]1O[C@H](CO)[C@H](O)[C@H](O)[C@H]1O [4-GX, 4-O-β-galactopyranosyl-D-xylose]",No. Negative,intestinal lactase [1]; [4],100
same,No. Positive (patients presenting intestinal lactase deficiency),intestinal lactase [1]; [4],105
same,Percentage of patients negative,intestinal lactase [1]; [4],49%
same,Percentage of patients positive,intestinal lactase [1]; [4],51.2% and 51%
same,Negative predictive value,intestinal lactase [1]; [5],90%
same,Positive predictive value,intestinal lactase [1]; [5],93.3% and 93.33%
same,Sensitivity,intestinal lactase [1]; [5],90.7% and 90.74%
same,Specificity,intestinal lactase [1]; [5],92.8% and 92.78%
same,sensitivity calculated using the ROC curves,intestinal lactase [1]; 4-hour urine samples,90.7%
same,specificity calculated using the ROC curves,intestinal lactase [1]; 4-hour urine samples,93.8%
same,"range of recalculated sensitivity, specificity, positive and negative predictive values","intestinal lactase [1]; 4-hour urine test, after correcting biopsy diagnosis",96.00-98.10
same,false negatives,intestinal lactase [1]; [6],3.74%
same,negative likelihood ratio,intestinal lactase [1]; [6],0.038
same,positive likelihood ratio,intestinal lactase [1]; [6],47.168
same,Negative predictive value,intestinal lactase [1]; [7],96.00%
same,Positive predictive value,intestinal lactase [1]; [7],98.10%
same,Sensitivity,intestinal lactase [1]; [7],96.26%
same,Specificity,intestinal lactase [1]; [7],97.96%
same,Negative predictive value,intestinal lactase [1]; [8],97.00%
same,Positive predictive value,intestinal lactase [1]; [8],99.05%
same,Sensitivity,intestinal lactase [1]; [8],97.20%
same,Specificity,intestinal lactase [1]; [8],98.98%
same,area under the ROC curve,intestinal lactase [1]; [9],0.9282
same,false negatives,intestinal lactase [1]; [9],9.3%
same,false positives,intestinal lactase [1]; [9],7.2%
same,"concordant positive results, percentage",intestinal lactase [1]; [10],96.3%
same,final number of concordant positive results,intestinal lactase [1]; [10],103
same,"negative results (concordant), percentage",intestinal lactase [1]; [10],98.0%
same,number of negative results (concordant),intestinal lactase [1]; [10],96
same,"adverse reactions, safety and tolerance",[2],safe and innocuous; also recorded: no clinically significant adverse reactions were found
same,lowest dose of 4-GX for which excretion of xylose in urine can be distinguished from placebo,intestinal lactase [3],0.5 g
